Assays:
[1] = test system: calcium ion signalling in cortical neurons; test: Metabotropic receptor function: calcium ion signalling (fura 2) in intact cortical neurons; assay type: cell-based, chick; settings: neurons loaded to 150±20 pmoles per mg protein; 10 μM glutamate agonist 30 minutes
Method: Metabotropic receptor function was examined in intact neurons by assaying lysosphingolipid modulation of calcium ion signalling. Approximately 1×10^6 cortical neurons were cultured on rectangular L-polylysine-coated coverslips and loaded with lysocerebroside or lysosphingomyelin to a level of 150±20 pmoles per mg protein. The neurons were returned to complete Ham's high glucose medium/DMEM (1:1, vol:vol) and infiltrated with 5 μM fura 2/AM (Molecular Probes, Eugene, Oreg.). Fura 2 is a calcium chelator whose fluorescence absorbance shifts to shorter wavelength upon calcium ion binding is measurable in intact cells. A change in intraneuronal calcium ion concentration was monitored as a change in the fluorescence spectrum.
The neurons were exposed to 10 μM glutamate agonist (for example, ibotenate) for 30 minutes at 37° C. The coverslips were then transferred to quartz cuvettes in medium containing 250 μM sulfinpyrazone to prevent fura 2/AM diffusion. Fluorescence ratios were recorded in a Perkin-Elmer LS-5 Fluorescence Spectrometer thermostatted at 37° C. at excitation wavelengths of 340 and 380 nm, a nd emission measurement at 500 nm. Calcium ion signalling in agonist-stimulated neurons was 3.0±0.2 arbitrary units for ibotenate-exposed neurons.

[2] = test system: astrocytes; settings: cited from earlier work
[3] = test system: cultured neurons; test: Lysosphingolipid content of cultured neurons by NBDZF fluorescence tagging; assay type: cell-based, chick; settings: for lysosphingolipid content, 0 hours of incubation / lysosphingolipid content, 0.5 hours of incubation / lysosphingolipid content, 1.0 hours of incubation / lysosphingolipid content, 2.0 hours of incubation / lysosphingolipid content, 3.0 hours of incubation: Intact neurons, 10 μmolar exposure; for content of sphingosine in the neurons following exposure: exposure to 50 μM lysosphingolipid, 1 hour
Text: Agonist-binding to metabotropic receptors influences the levels of lysosphingolipid in neuronal membranes. However, there is no convenient methodology available for the measurement of lysosphingolipid content in cultured neurons. As a result, a sensitive method of fluorometric tracing has been devised and is described herein. The measurement of lysosphingolipid content in cultured neurons is based on the stable fluorescence-tagging procedure using 4-fluoro, 7-nitrobenzofuran (NBDZF) described by Nozowa et al J. Neurochem. 59:607-609, 1992). The procedure was applied to: resting neurons; neurons exposed to 100 μM metabotropic receptor agonist for 1 hour; resting neurons exogenously enriched in lysosphingolipids; and neurons exogenously enriched in lysosphingolipids and exposed to metabotropic receptor agonist for 1 hour. The neurons were scraped in batches of 107 (1 Petri dish, approximately 8 cm in diameter, is equivalent to 2 mg membrane protein) and subjected to anaylsis.
Total lipids were removed from the neuron samples by repeated extraction with chloroforn:methanol (2:1, vol:vol). The lysosphingolipids were separated from total neuronal lipid in 90±5% recovery yield (n=10) by the stepped chromatographic procedure of Van Veldhoven et al. (Anal. Biochem. 183:177-189, 1989). The recovered lysosphingolipids were stably tagged with NBDZF by the rapid procedure of Nozowa et al. (supra). The fluorescence tagged neuronal lysosphingolipids were separated in parallel with reference standards NBDZF-Sph, NBDZF-Psy, and NBDZF-Lsm on high performance silica gel thin layer chromatography plates with acetonitrile:H2 O (10:0.5, vol:vol). The highly fluorescent, well separated bands were scraped from the plate. The fluorescence tagged lysosphingolipids are eluted from the scraped silica gel with methanol:1 N HCl (1:0.02, vol:vol). The fluorescence tagged lysosphingolipid eluates were quantitated against reference standards by fluorescence measurement in a Perkin-Elmer LS-5 Fluorescence Spectrometer.
Sphingolipid content of neurons exposed to sphingosine, lysocerebroside, and lysosphingomyelin was examined as follows. A Petri dish containing approximately 107 neurons was incubated with 5 μCi [^3 H]myo-Ins in 3 ml DMEM overnight to prelabel the phosphoinositide InsP3 may contain. The neurons were washed with PBS and 3 ml of PBS containing 4.5 g/l glucose was added. Preparations of sphingosine, lysocerebroside, lysosphingomyelin (Sigma Chemical Co., St. Louis, Mo.) and combinations of each were prepared as the hydrochloride salt dissolved in PBS. The lysosphingolipids were added to the Petri dishes to produce a concentration ranging from 0-150 μM. […] Trypsinization removes non-specifically bound lysosphingolipids that may adhere to extracellular plasma membrane protein domain s. Non-specific adherence between cationic micelles of lysosphingolipids and the neuronal glycocatyx avoided by performing the experiments with lysosphingolipid concentrations below the critical micelle concentration. Neurons were analyzed for lysosphingolipid content as described above.

Structure (SMILES) | agonist-elicited calcium signalling in lysosphingolipid-loaded neurons [1] | InsP3 production in astrocytes [2] | lysosphingolipid content, 0 hours of incubation [3] | lysosphingolipid content, 0.5 hours of incubation [3] | lysosphingolipid content, 1.0 hours of incubation [3] | lysosphingolipid content, 2.0 hours of incubation [3] | lysosphingolipid content, 3.0 hours of incubation [3] | content of sphingosine in the neurons following exposure [3]
CCCCCCCCCCCCC/C=C/[C@@H](O)[C@@H](N)COP(=O)([O-])OCC[N+](C)(C)C [lysosphingomyelin, sphingosyl phosphoryicholine] | no calcium signalling measurably over controls | – | – | – | – | – | – | –
CCCCCCCCCCCCC/C=C/[C@@H](O)[C@@H](N)CO [sphingosine] | – | enhanced | 85 ± 15 pmoles lysosphingolipid/mg pla | 85 ± 20 pmoles lysosphingolipid/mg pla | 110 ± 15 pmoles lysosphingolipid/mg pla | 105 ± 5 pmoles lysosphingolipid/mg pla | 115 ± 15 pmoles lysosphingolipid/mg pla | 430±70 pmoles/mg protein
CCCCCCCCCCCCC/C=C/[C@@H](O)[C@@H](N)CO[C@@H]1O[C@H](CO)[C@H](O)[C@H](O)[C@H]1O [psychosine, lysocerebroside] | no calcium signalling measurably over controls | inhibited | 25 ± 5 pmoles lysosphingolipid/mg pla | 35 ± 15 pmoles lysosphingolipid/mg pla | 45 ± 10 pmoles lysosphingolipid/mg pla | 80 ± 5 pmoles lysosphingolipid/mg pla | 80 ± 5 pmoles lysosphingolipid/mg pla | 220±45 pmoles/mg protein

Reference: patent US6083920A, “Compositions for modulating intracellular inositol trisphosphate concentration” (priority 1996, dated 2000)
